Assay results from US11020414B2, “Antimicrobial compositions with cysteamine” (priority 2010, dated 2021).
Values after ≈ are worked out from the molar mass of the structure shown.

What was measured:
[1] = test system: Pseudomonas aeruginosa Pa01; assay: MIC determination, strain Pa01; assay type: cell-based; details: for MIC: read-out: MIC100
Description: (§1) The bacterial inoculum was established by the dilution method from actively-growing cultures in Mueller-Hinton (MH) broth, standardized with 0.5 McFarland turbidity standard as described in the CLSI method M26-A.
(§2) Both the bacterial inoculum and the antimicrobial agents, including the compounds structurally related to cysteamine, were added simultaneously to the plates. The plates were incubated at 37° C. for 24 h and the optical density was read at 625 nm on a microtitre plate reader (BioTek Powerwave XS, Winooski, USA). […]
(§3) A number of compounds related in chemical structure to cysteamine were examined for antimicrobial activity; cystamine (dihydrochloride salt), taurine and 2,3-dimercaptosuccinic acid. Other compounds chemically related to cysteamine are known, but are toxic, and are therefore of no utility in a drug of this nature.

[2] = test system: Pseudomonas aeruginosa Pa14; assay: MIC determination, strain Pa14; assay type: cell-based; details: for MIC: read-out: MIC100
Description: as §1, §2, §3

[3] = test system: Pseudomonas aeruginosa Pa058; assay: MIC determination, strain Pa058; assay type: cell-based; details: for MIC: read-out: MIC100
Description: as §1, §2, §3

[4] = test system: Pseudomonas aeruginosa NH57388A; assay: MIC determination, strain NH57388A; assay type: cell-based; details: for MIC: read-out: MIC100
Description: as §1, §2, §3

[5] = test system: P. aeruginosa ATCC 27853; assay: MIC and FIC of antibiotics with cysteamine, environments mimicking a CF lung; assay type: cell-based, Pseudomonas aeruginosa
Description: Both the bacterial inoculum and the antimicrobial agents, including the compounds structurally related to cysteamine, were added simultaneously to the plates. The plates were incubated at 37° C. for 24 h and the optical density was read at 625 nm on a microtitre plate reader (BioTek Powerwave XS, Winooski, USA). The MIC was obtained as the lowest concentration of antimicrobial showing total inhibition of bacterial growth.
The FIC corresponds to an interaction coefficient indicating whether the combination of antimicrobial agents is synergistic, additive, antagonist or neutral. The FIC is determined by comparing the activity of an agent in combination (MIC of agent A+agent B) with the activity of the agent alone (MIC of agent A or agent B) as follow (Singh et al., 2000): FIC=MICA[combination]/MICA[alone]+MICB[combination]/MICB[alone]
The range of concentrations of antimicrobial agents was 0-10 μg/ml.

Row | MIC50 [1] [µg/mL] | MIC90 [1] [µg/mL] | MIC [1] [µg/mL] | MIC50 [2] [µg/mL] | MIC90 [2] [µg/mL] | MIC [2] [µg/mL] | MIC50 [3] [µg/mL] | MIC90 [3] [µg/mL] | MIC [3] [µg/mL] | MIC50 [4] [µg/mL] | MIC90 [4] [µg/mL] | MIC [4] [µg/mL] | MIC upon administration with cysteamine compared to administration alone ([5]; environments mimicking those found in a CF lung) | SMILES | antimicrobial effect in combination with cysteamine ([5]; mucolytic environment)
1 | > 2000 | > 2000 | > 2000 | > 2000 | > 2000 | > 2000 | > 2000 | > 2000 | > 2000 | > 2000 | > 2000 | > 2000 | – | NCCS(=O)(=O)O [Taurine, taurine] | –
2 | 1000 to 2000 (≈ 5.49 to 11 mM) | > 2000 | > 2000 | 1000 to 2000 (≈ 5.49 to 11 mM) | 1000 to 2000 (≈ 5.49 to 11 mM) | > 2000 | 500 to 2000 (≈ 2.74 to 11 mM) | 1000 to 2000 (≈ 5.49 to 11 mM) | 2000 (≈ 11 mM) | 500 to 2000 (≈ 2.74 to 11 mM) | 1000 to 2000 (≈ 5.49 to 11 mM) | 2000 (≈ 11 mM) | – | O=C(O)C(S)C(S)C(=O)O (centres unmarked) [2,3-Dimercaptosuccinic Acid, 2,3-dimercaptosuccinic acid] | –
3 | – | – | – | – | – | – | – | – | – | – | – | – | greatly reduced | O=C(O)c1cn(C2CC2)c2cc(N3CCNCC3)c(F)cc2c1=O [Ciprofloxacin] | maintained
